# Experiments:
# Type in all cases: cell-based
# [1] = molecular target: proteins of HEK293T cells transiently overexpressing caspase-6 (Homo sapiens, UniProt P02768); conditions: Probe; protein ALB P02768
# [2] = molecular target: proteins of HEK293T cells transiently overexpressing caspase-6 (Homo sapiens, UniProt P04181); conditions: exp_ref Probe; protein OAT (P04181); analysis C6
# [3] = molecular target: proteins of HEK293T cells transiently overexpressing caspase-6 (Homo sapiens, UniProt P09429); conditions: Probe; protein HMGB1 P09429
# [4] = molecular target: proteins of HEK293T cells transiently overexpressing caspase-6 (Homo sapiens, UniProt P09874); conditions: protein PARP1 (P09874)
# [5] = molecular target: T1, proteins of HEK293T cells transiently overexpressing caspase-6 (Homo sapiens, UniProt P30041); conditions: protein PRDX6 (P30041)
# T1 sequence (P30041 1-224): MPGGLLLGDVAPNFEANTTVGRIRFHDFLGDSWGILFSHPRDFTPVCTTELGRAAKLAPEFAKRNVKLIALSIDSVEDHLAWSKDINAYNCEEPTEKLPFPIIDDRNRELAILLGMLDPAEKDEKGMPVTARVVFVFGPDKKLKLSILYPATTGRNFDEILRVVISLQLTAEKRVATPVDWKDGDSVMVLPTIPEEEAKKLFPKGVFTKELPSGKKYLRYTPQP
# [6] = molecular target: proteins of HEK293T cells transiently overexpressing caspase-6 (Homo sapiens, UniProt P36578); conditions: exp_ref Probe; protein RPL4 (P36578); analysis C6
# [7] = molecular target: proteins of HEK293T cells transiently overexpressing caspase-6 (Homo sapiens, UniProt P37837); conditions: Probe; protein TALDO1 P37837
# [8] = molecular target: T2, proteins of HEK293T cells transiently overexpressing caspase-6 (Homo sapiens, UniProt P46977); conditions: protein STT3A (P46977)
# T2 sequence (P46977 1-705): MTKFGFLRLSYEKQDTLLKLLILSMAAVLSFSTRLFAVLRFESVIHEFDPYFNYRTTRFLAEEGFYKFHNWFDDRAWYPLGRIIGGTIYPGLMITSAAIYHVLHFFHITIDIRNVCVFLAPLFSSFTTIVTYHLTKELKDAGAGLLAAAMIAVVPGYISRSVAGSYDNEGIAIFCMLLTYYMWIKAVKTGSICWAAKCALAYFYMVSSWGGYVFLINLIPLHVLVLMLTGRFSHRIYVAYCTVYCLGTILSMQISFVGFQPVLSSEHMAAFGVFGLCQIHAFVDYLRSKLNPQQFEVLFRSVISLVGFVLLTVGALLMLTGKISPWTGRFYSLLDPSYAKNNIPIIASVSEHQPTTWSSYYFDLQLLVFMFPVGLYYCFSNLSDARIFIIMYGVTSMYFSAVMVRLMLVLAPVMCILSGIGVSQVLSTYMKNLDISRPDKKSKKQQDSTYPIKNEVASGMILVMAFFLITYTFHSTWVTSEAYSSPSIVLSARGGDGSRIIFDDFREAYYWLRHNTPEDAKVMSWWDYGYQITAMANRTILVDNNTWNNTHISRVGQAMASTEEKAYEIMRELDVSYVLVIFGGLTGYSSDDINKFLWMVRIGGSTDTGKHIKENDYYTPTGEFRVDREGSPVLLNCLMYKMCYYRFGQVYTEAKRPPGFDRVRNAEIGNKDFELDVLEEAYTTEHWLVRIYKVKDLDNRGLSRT
# [9] = molecular target: proteins of HEK293T cells transiently overexpressing caspase-6 (Homo sapiens, UniProt P52597); conditions: Probe; protein HNRNPF P52597
# [10] = molecular target: T3, proteins of HEK293T cells transiently overexpressing caspase-6 (Homo sapiens, UniProt P54577); conditions: protein YARS (P54577), analysis C6
# T3 sequence (P54577 1-528): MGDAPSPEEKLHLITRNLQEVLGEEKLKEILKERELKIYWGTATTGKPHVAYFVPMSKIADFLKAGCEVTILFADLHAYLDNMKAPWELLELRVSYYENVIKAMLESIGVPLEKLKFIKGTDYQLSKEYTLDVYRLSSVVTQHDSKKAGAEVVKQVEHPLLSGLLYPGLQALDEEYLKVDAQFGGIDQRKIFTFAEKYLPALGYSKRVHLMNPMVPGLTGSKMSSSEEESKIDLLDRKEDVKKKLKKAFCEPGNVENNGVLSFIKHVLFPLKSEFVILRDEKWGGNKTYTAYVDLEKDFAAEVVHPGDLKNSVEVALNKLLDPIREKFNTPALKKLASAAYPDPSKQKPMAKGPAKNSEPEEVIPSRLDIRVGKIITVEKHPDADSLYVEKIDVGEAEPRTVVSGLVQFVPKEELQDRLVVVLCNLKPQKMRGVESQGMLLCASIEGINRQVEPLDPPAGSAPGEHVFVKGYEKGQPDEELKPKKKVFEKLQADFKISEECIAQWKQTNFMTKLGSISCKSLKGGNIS
# [11] = molecular target: proteins of HEK293T cells transiently overexpressing caspase-6 (Homo sapiens, UniProt P55884); conditions: exp_ref Probe; protein EIF3B (P55884); analysis C6
# [12] = molecular target: proteins of HEK293T cells transiently overexpressing caspase-6 (Homo sapiens, UniProt P62424); conditions: exp_ref Probe; protein RPL7A (P62424); analysis C6
# [13] = molecular target: proteins of HEK293T cells transiently overexpressing caspase-6 (Homo sapiens, UniProt Q8NBS9); conditions: exp_ref Probe; protein TXNDC5 (Q8NBS9); analysis C6
# [14] = molecular target: proteins of HEK293T cells transiently overexpressing caspase-6 (Homo sapiens, UniProt Q9NR30); conditions: exp_ref Probe; protein DDX21 (Q9NR30); analysis C6
# Chain of proteins of HEK293T cells transiently overexpressing caspase-6 (Homo sapiens, UniProt Q9NR30) (Q9NR30 whole entry): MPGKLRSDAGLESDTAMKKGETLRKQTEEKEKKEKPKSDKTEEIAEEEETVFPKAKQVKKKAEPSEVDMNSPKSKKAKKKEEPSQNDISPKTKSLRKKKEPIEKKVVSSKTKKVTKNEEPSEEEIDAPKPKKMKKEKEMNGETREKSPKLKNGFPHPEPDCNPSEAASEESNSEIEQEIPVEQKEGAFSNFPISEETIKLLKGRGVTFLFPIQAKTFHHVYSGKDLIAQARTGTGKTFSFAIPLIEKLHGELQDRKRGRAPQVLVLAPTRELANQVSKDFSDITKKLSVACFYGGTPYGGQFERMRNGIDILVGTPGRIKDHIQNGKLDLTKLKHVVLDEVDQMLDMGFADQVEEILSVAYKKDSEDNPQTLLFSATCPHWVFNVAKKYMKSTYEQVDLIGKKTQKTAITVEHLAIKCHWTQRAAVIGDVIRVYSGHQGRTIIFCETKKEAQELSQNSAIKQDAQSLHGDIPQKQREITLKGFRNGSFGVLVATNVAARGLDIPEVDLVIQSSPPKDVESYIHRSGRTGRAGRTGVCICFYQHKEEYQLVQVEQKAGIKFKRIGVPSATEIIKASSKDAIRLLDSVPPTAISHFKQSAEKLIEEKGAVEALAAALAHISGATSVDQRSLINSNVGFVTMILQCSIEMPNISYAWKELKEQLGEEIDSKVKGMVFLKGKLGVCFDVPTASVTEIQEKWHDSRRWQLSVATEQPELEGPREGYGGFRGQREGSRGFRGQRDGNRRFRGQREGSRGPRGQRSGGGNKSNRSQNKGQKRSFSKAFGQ
# Chain of proteins of HEK293T cells transiently overexpressing caspase-6 (Homo sapiens, UniProt P09874) (P09874 whole entry): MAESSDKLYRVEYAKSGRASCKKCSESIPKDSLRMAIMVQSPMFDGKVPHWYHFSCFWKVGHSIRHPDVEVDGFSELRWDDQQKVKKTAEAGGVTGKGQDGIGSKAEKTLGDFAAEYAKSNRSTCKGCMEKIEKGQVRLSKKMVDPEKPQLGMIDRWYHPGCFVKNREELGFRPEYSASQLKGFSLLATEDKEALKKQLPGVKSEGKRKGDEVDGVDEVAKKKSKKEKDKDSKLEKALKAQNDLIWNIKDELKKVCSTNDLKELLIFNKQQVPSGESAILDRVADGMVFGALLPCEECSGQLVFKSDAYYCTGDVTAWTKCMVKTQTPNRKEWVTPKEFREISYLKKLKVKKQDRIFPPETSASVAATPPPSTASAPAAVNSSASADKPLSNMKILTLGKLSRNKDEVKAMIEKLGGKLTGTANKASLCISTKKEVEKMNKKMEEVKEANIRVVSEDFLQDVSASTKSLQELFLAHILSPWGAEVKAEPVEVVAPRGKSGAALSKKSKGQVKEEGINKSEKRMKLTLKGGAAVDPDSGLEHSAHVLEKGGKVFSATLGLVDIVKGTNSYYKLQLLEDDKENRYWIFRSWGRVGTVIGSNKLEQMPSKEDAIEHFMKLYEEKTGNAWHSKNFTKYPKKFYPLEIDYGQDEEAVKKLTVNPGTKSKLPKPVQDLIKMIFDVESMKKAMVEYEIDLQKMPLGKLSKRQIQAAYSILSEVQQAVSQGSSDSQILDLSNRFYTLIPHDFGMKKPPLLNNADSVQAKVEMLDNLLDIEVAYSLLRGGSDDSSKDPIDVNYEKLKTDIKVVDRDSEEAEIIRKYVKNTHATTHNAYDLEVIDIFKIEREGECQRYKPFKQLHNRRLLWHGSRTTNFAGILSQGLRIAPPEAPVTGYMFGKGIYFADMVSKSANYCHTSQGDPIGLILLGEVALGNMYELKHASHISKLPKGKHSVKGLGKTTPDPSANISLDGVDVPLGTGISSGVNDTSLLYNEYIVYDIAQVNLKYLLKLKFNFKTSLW
# Chain of proteins of HEK293T cells transiently overexpressing caspase-6 (Homo sapiens, UniProt P52597) (P52597 whole entry): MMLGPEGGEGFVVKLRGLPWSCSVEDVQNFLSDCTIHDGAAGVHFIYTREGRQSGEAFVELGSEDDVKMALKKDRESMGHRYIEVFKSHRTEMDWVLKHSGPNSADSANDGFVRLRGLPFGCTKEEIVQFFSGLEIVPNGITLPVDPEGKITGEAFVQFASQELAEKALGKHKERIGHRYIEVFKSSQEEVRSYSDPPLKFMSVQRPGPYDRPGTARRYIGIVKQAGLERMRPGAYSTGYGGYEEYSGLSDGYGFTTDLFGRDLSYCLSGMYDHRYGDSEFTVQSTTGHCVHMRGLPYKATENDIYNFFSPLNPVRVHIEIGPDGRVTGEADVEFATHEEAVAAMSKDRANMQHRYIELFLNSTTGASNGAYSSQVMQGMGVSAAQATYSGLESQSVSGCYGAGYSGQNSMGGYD
# Chain of proteins of HEK293T cells transiently overexpressing caspase-6 (Homo sapiens, UniProt P02768) (P02768 25-609): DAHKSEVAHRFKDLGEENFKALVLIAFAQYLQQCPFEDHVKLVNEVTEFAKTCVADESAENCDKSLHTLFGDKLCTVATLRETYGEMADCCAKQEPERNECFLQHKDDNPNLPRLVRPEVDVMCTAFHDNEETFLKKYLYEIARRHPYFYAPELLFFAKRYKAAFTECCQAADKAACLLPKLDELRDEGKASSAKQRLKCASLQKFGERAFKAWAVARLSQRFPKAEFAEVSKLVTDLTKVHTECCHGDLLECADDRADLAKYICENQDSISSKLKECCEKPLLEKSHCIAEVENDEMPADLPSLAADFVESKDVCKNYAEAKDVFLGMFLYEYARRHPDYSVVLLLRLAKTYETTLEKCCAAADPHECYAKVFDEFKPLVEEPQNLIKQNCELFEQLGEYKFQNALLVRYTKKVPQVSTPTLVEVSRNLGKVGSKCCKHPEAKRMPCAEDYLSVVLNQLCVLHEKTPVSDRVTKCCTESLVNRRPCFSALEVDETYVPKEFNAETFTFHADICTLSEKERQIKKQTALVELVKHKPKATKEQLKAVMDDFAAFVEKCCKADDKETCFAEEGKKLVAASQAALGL
# Chain of proteins of HEK293T cells transiently overexpressing caspase-6 (Homo sapiens, UniProt P55884) (P55884 whole entry): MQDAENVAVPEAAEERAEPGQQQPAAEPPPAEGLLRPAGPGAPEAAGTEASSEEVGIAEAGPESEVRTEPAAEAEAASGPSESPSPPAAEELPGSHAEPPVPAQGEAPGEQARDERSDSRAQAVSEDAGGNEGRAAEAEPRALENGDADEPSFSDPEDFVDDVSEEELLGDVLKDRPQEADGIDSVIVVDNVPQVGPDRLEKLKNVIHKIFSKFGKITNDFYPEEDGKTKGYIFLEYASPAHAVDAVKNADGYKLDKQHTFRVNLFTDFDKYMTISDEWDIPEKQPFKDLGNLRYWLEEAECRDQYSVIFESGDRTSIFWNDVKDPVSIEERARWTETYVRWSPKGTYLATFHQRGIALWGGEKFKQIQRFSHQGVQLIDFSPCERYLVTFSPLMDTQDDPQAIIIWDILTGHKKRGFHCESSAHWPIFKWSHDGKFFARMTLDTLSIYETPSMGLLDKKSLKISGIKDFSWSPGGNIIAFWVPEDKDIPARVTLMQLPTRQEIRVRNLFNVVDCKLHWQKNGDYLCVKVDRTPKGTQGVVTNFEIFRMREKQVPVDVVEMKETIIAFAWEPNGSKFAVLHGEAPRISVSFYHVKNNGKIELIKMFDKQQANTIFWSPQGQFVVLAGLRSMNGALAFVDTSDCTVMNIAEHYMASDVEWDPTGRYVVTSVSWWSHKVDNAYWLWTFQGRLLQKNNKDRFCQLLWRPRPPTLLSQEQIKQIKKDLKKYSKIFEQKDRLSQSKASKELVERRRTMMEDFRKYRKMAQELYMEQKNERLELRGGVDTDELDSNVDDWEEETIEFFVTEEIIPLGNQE
# Chain of proteins of HEK293T cells transiently overexpressing caspase-6 (Homo sapiens, UniProt P37837) (P37837 whole entry): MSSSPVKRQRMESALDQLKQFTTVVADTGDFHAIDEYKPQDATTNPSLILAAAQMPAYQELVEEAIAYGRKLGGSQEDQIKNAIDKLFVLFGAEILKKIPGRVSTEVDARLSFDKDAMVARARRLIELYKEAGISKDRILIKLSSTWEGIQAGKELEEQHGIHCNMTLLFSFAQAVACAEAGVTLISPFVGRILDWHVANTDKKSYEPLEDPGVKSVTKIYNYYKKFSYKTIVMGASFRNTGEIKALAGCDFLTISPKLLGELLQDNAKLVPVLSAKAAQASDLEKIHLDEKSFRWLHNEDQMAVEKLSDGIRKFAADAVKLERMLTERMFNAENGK
# Chain of proteins of HEK293T cells transiently overexpressing caspase-6 (Homo sapiens, UniProt P04181) (P04181 26-439): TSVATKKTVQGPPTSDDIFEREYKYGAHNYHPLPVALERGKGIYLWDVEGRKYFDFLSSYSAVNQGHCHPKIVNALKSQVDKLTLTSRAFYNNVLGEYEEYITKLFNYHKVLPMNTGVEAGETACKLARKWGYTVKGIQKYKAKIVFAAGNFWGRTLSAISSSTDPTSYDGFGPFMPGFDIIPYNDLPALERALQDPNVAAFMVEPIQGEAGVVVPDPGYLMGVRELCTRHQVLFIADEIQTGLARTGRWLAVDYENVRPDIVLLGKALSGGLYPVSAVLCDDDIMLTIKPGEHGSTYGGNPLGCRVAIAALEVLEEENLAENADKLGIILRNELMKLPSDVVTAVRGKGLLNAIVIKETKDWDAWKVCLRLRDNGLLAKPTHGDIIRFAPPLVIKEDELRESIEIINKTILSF
# Chain of proteins of HEK293T cells transiently overexpressing caspase-6 (Homo sapiens, UniProt P09429) (P09429 whole entry): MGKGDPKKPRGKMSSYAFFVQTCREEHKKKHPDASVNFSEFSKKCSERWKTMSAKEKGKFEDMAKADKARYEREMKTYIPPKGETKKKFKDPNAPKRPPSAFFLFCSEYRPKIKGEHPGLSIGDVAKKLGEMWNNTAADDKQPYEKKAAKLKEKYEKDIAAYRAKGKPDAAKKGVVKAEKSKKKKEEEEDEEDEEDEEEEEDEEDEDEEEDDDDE
# Chain of proteins of HEK293T cells transiently overexpressing caspase-6 (Homo sapiens, UniProt Q8NBS9) (Q8NBS9 33-432): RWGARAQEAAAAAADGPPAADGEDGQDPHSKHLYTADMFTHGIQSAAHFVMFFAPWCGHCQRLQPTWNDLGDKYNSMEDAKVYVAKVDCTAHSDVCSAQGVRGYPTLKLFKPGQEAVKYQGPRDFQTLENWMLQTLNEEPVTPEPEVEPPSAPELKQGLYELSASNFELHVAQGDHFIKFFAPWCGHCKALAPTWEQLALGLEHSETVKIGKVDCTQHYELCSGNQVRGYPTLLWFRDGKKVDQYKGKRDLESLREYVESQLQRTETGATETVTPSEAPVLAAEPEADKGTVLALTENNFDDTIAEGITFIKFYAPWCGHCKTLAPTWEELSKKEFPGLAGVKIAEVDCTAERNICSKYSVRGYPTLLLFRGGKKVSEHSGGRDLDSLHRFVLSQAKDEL
structure (smiles),measurement,setting,value
C#CCOc1ccc([C@@H]2C[C@@H](C(=O)Nc3ccc(OC(F)(F)F)cc3)CN(S(=O)(=O)C=C)C2)cc1 (relative stereo) [13-t],enrich.exp.med,[1],-8.362
same,enrich.exp.med,[2],1.012
same,enrich.exp.med,[3],-1.399
same,enrich.exp.med,"[4]; exp_ref Probe, analysis C6",0.2769
same,enrich.exp.med.lin,[4],1.2116
same,enrich.exp.med.log2,[4],0.2769
same,enrich.exp.med,"[5]; exp_ref Probe, analysis C6",0.7015
same,enrich.exp.med.lin,[5],1.626
same,enrich.exp.med.log2,[5],0.7015
same,enrich.exp.med,[6],0.4261
same,enrich.exp.med,[7],-1.23
same,enrich.exp.med.lin,[8],3.857
same,enrich.exp.med.log2,[8],1.948
same,enrich.exp.med,"[8]; exp_ref Probe, analysis C6",1.948
same,enrich.exp.med,[9],-0.4498
same,enrich.exp.med.lin,[10]; Expt Probe,10.7591
same,enrich.exp.med.log2,[10]; Expt Probe,3.427
same,enrich.exp.med,[10]; exp_ref Probe,3.427
same,enrich.exp.med,[11],0.2575
same,enrich.exp.med,[12],0.8961
same,enrich.exp.med,[13],0.5284
same,enrich.exp.med,[14],0.5934
